Measurements reported in ChEMBL document CHEMBL3045521, “Synthesis and evaluation of anti-inflammatory, analgesic, ulcerogenicity and nitric oxide-releasing studies of novel ibuprofen analogs as nonulcerogenic derivatives” (Med Chem Res, 2011).
Converted amounts (≈) assume the structure as drawn.

Assays:
[1] = Induction of nitric oxide release at 10^-4 M after 1 hr by Griess method relative to control; assay type: physicochemical; settings: 100 µM
Aorta = assay: Vasorelaxant activity in normotensive Rattus norvegicus Wistar albino (rat) aorta assessed as inhibition of norepinephrine-induced contraction; assay type: functional, tissue-based
Rattus norvegicus [2] = assay: Anti-inflammatory activity in Rattus norvegicus Wistar albino (rat) assessed as carrageenan-induced paw edema at 66.69 mg/kg, po administered 1 hr prior to carrageenan-challenge measured at 3 hr relative to control; assay type: functional
Rattus norvegicus [3] = assay: Anti-inflammatory activity in Rattus norvegicus Wistar albino (rat) assessed as carrageenan-induced paw edema at 66.69 mg/kg, po administered 1 hr prior to carrageenan-challenge measured at 2 hr relative to control; assay type: functional
Mus musculus [4] = assay: Analgesic activity in Mus musculus (mouse) assessed as inhibition of acetic acid-induced writhing at 49.46 mg/kg, po measured after 5 min for 15 min relative to control; assay type: functional
Rattus norvegicus [5] = assay: Anti-inflammatory activity in Rattus norvegicus Wistar albino (rat) assessed as carrageenan-induced paw edema at 66.69 mg/kg, po administered 1 hr prior to carrageenan-challenge measured at 1 hr relative to control; assay type: functional
Rattus norvegicus [6] = assay: Gastrointestinal toxicity against Rattus norvegicus Wistar albino (rat) assessed as disruption of mucosal layer at 61.2 mg/kg po by HE-staining based […] microscopic analysis; assay type: organism-based; parameters: dose 61.2 mg/kg, route oral; settings: in vivo
Rattus norvegicus [7] = assay: Anti-inflammatory activity in Rattus norvegicus Wistar albino (rat) assessed as carrageenan-induced paw edema at 51.06 mg/kg, po administered 1 hr prior to carrageenan-challenge measured at 3 hr relative to control; assay type: functional
Rattus norvegicus [8] = assay: Anti-inflammatory activity in Rattus norvegicus Wistar albino (rat) assessed as carrageenan-induced paw edema at 51.06 mg/kg, po administered 1 hr prior to carrageenan-challenge measured at 2 hr relative to control; assay type: functional
Rattus norvegicus [9] = assay: Anti-inflammatory activity in Rattus norvegicus Wistar albino (rat) assessed as carrageenan-induced paw edema at 51.06 mg/kg, po administered 1 hr prior to carrageenan-challenge measured at 1 hr relative to control; assay type: functional
Mus musculus [10] = assay: Analgesic activity in Mus musculus (mouse) assessed as inhibition of acetic acid-induced writhing at 37.87 mg/kg, po measured after 5 min for 15 min relative to control; assay type: functional
Rattus norvegicus [11] = assay: Gastrointestinal toxicity against Rattus norvegicus Wistar albino (rat) assessed as disruption of mucosal layer at 59.64 mg/kg po by HE-staining based […] microscopic analysis; assay type: organism-based; parameters: dose 59.64 mg/kg, route oral; settings: in vivo
Mus musculus [12] = assay: Analgesic activity in Mus musculus (mouse) assessed as inhibition of acetic acid-induced writhing at 37.28 mg/kg, po measured after 5 min for 15 min relative to control; assay type: functional
Rattus norvegicus [13] = assay: Anti-inflammatory activity in Rattus norvegicus Wistar albino (rat) assessed as carrageenan-induced paw edema at 49.7 mg/kg, po administered 1 hr prior to carrageenan-challenge measured at 1 hr relative to control; assay type: functional
Rattus norvegicus [14] = assay: Anti-inflammatory activity in Rattus norvegicus Wistar albino (rat) assessed as carrageenan-induced paw edema at 49.7 mg/kg, po administered 1 hr prior to carrageenan-challenge measured at 3 hr relative to control; assay type: functional
Rattus norvegicus [15] = assay: Anti-inflammatory activity in Rattus norvegicus Wistar albino (rat) assessed as carrageenan-induced paw edema at 49.7 mg/kg, po administered 1 hr prior to carrageenan-challenge measured at 2 hr relative to control; assay type: functional
Mus musculus [16] = assay: Analgesic activity in Mus musculus (mouse) assessed as inhibition of acetic acid-induced writhing at 47.98 mg/kg, po measured after 5 min for 15 min relative to control; assay type: functional
Rattus norvegicus [17] = assay: Anti-inflammatory activity in Rattus norvegicus Wistar albino (rat) assessed as carrageenan-induced paw edema at 63.98 mg/kg, po administered 1 hr prior to carrageenan-challenge measured at 3 hr relative to control; assay type: functional
Rattus norvegicus [18] = assay: Anti-inflammatory activity in Rattus norvegicus Wistar albino (rat) assessed as carrageenan-induced paw edema at 63.98 mg/kg, po administered 1 hr prior to carrageenan-challenge measured at 2 hr relative to control; assay type: functional
Rattus norvegicus [19] = assay: Anti-inflammatory activity in Rattus norvegicus Wistar albino (rat) assessed as carrageenan-induced paw edema at 63.98 mg/kg, po administered 1 hr prior to carrageenan-challenge measured at 1 hr relative to control; assay type: functional
Rattus norvegicus [20] = assay: Gastrointestinal toxicity against Rattus norvegicus Wistar albino (rat) assessed as disruption of mucosal layer at 57.96 mg/kg po by HE-staining based […] microscopic analysis; assay type: organism-based; parameters: dose 57.96 mg/kg, route oral; settings: in vivo
Mus musculus [21] = assay: Analgesic activity in Mus musculus (mouse) assessed as inhibition of acetic acid-induced writhing at 35.85 mg/kg, po measured after 5 min for 15 min relative to control; assay type: functional
Rattus norvegicus [22] = assay: Anti-inflammatory activity in Rattus norvegicus Wistar albino (rat) assessed as carrageenan-induced paw edema at 48.34 mg/kg, po administered 1 hr prior to carrageenan-challenge measured at 3 hr relative to control; assay type: functional
Rattus norvegicus [23] = assay: Anti-inflammatory activity in Rattus norvegicus Wistar albino (rat) assessed as carrageenan-induced paw edema at 48.34 mg/kg, po administered 1 hr prior to carrageenan-challenge measured at 2 hr relative to control; assay type: functional
Rattus norvegicus [24] = assay: Anti-inflammatory activity in Rattus norvegicus Wistar albino (rat) assessed as carrageenan-induced paw edema at 48.34 mg/kg, po administered 1 hr prior to carrageenan-challenge measured at 1 hr relative to control; assay type: functional
Rattus norvegicus [25] = assay: Gastrointestinal toxicity against Rattus norvegicus Wistar albino (rat) assessed as disruption of mucosal layer at 24 mg/kg po by HE-staining based […] microscopic analysis; assay type: organism-based; parameters: dose 24 mg/kg, route oral; settings: in vivo
Mus musculus [26] = assay: Analgesic activity in Mus musculus (mouse) assessed as inhibition of acetic acid-induced writhing at 15 mg/kg, po measured after 5 min for 15 min relative to control; assay type: functional
Rattus norvegicus [27] = assay: Anti-inflammatory activity in Rattus norvegicus Wistar albino (rat) assessed as carrageenan-induced paw edema at 20 mg/kg, po administered 1 hr prior to carrageenan-challenge measured at 3 hr relative to control; assay type: functional
Rattus norvegicus [28] = assay: Anti-inflammatory activity in Rattus norvegicus Wistar albino (rat) assessed as carrageenan-induced paw edema at 20 mg/kg, po administered 1 hr prior to carrageenan-challenge measured at 2 hr relative to control; assay type: functional
Rattus norvegicus [29] = assay: Anti-inflammatory activity in Rattus norvegicus Wistar albino (rat) assessed as carrageenan-induced paw edema at 20 mg/kg, po administered 1 hr prior to carrageenan-challenge measured at 1 hr relative to control; assay type: functional

With `CC(C)Cc1ccc(C(C)c2n[nH]c(=S)n2-c2ccc(C(=O)NNC(=O)CCO[N+](=O)[O-])c(C(=O)NNC(=O)CCO[N+](=O)[O-])c2)cc1` (stereo not given) as the compound, how does the Activity [1] read?
The Activity was 0.57%.

And the EC50 (Aorta)?
Its EC50 is 34.9 µg/mL (≈ 50.7 µM).

What about the inhibition in vivo at 66.69 mg/kg (Rattus norvegicus [2]) of the same compound?
Its inhibition in vivo at 66.69 mg/kg is 31.9%.

And the inhibition in vivo at 66.69 mg/kg (Rattus norvegicus [3])?
Its inhibition in vivo at 66.69 mg/kg is 29.9%.

And the inhibition in vivo at 49.46 mg/kg (Mus musculus [4])?
The inhibition in vivo at 49.46 mg/kg was 48.6%.

And the inhibition in vivo at 66.69 mg/kg (Rattus norvegicus [5])?
Its inhibition in vivo at 66.69 mg/kg is 27.9%.

For `CC(C)Cc1ccc(C(C)c2n[nH]c(=S)n2-c2ccccc2CC(=O)NNC(=O)CCO[N+](=O)[O-])cc1` (stereo not given), which Activity [1] is on record?
Its Activity is 0.32%.

And the EC50 (Aorta)?
The EC50 was 58.6 µg/mL (≈ 111 µM).

What about the Activity (Rattus norvegicus [6]) of the same compound?
The Activity was “Non-toxic”.

What about the inhibition in vivo at 51.06 mg/kg (Rattus norvegicus [7]) of the same compound?
The inhibition in vivo at 51.06 mg/kg was 61.8%.

What about the inhibition in vivo at 51.06 mg/kg (Rattus norvegicus [8]) of the same compound?
Its inhibition in vivo at 51.06 mg/kg is 56.5%.

And the inhibition in vivo at 51.06 mg/kg (Rattus norvegicus [9])?
The inhibition in vivo at 51.06 mg/kg was 51.5%.

What about the inhibition in vivo at 37.87 mg/kg (Mus musculus [10]) of the same compound?
The inhibition in vivo at 37.87 mg/kg was 56.1%.

Which results are given for `CC(C)Cc1ccc(C(C)c2n[nH]c(=S)n2-c2ccccc2CC(=O)NNC(=O)CO[N+](=O)[O-])cc1` (stereo not given)?
Activity [1]: 0.35%; EC50 (Aorta): 55.3 µg/mL (≈ 108 µM); Activity (Rattus norvegicus [11]): Non-toxic; inhibition in vivo at 37.28 mg/kg (Mus musculus [12]): 59%; inhibition in vivo at 49.7 mg/kg (Rattus norvegicus [13]): 54.5%; inhibition in vivo at 49.7 mg/kg (Rattus norvegicus [14]): 62.8%; inhibition in vivo at 49.7 mg/kg (Rattus norvegicus [15]): 58.8%

With `CC(C)Cc1ccc(C(C)c2n[nH]c(=S)n2-c2ccc(C(=O)NNC(=O)CO[N+](=O)[O-])c(C(=O)NNC(=O)CO[N+](=O)[O-])c2)cc1` (stereo not given) as the compound, how does the Activity [1] read?
The Activity was 0.42%.

What about the EC50 (Aorta) of the same compound?
Its EC50 is 38.7 µg/mL (≈ 58.6 µM).

What about the inhibition in vivo at 47.98 mg/kg (Mus musculus [16]) of the same compound?
Its inhibition in vivo at 47.98 mg/kg is 52.6%.

And the inhibition in vivo at 63.98 mg/kg (Rattus norvegicus [17])?
Its inhibition in vivo at 63.98 mg/kg is 41.9%.

What about the inhibition in vivo at 63.98 mg/kg (Rattus norvegicus [18]) of the same compound?
The inhibition in vivo at 63.98 mg/kg was 40.1%.

And the inhibition in vivo at 63.98 mg/kg (Rattus norvegicus [19])?
Its inhibition in vivo at 63.98 mg/kg is 38.8%.

With `CC(C)Cc1ccc(C(C)c2n[nH]c(=S)n2-c2ccc(C(=O)NNC(=O)CCO[N+](=O)[O-])cc2)cc1` (stereo not given) as the compound, how does the Activity [1] read?
The Activity was 0.39%.

What about the EC50 (Aorta) of the same compound?
Its EC50 is 30.5 µg/mL (≈ 59.5 µM).

And the Activity (Rattus norvegicus [11])?
The Activity was “Non-toxic”.

And the inhibition in vivo at 37.28 mg/kg (Mus musculus [12])?
The inhibition in vivo at 37.28 mg/kg was 64.8%.

And the inhibition in vivo at 49.7 mg/kg (Rattus norvegicus [13])?
Its inhibition in vivo at 49.7 mg/kg is 52.1%.

And the inhibition in vivo at 49.7 mg/kg (Rattus norvegicus [14])?
The inhibition in vivo at 49.7 mg/kg was 61.8%.

What about the inhibition in vivo at 49.7 mg/kg (Rattus norvegicus [15]) of the same compound?
The inhibition in vivo at 49.7 mg/kg was 57.1%.

With `CC(C)Cc1ccc(C(C)c2n[nH]c(=S)n2-c2ccc(C(=O)NNC(=O)CO[N+](=O)[O-])cc2)cc1` (stereo not given) as the compound, how does the Activity [1] read?
The Activity was 0.48%.

And the EC50 (Aorta)?
Its EC50 is 42.8 µg/mL (≈ 85.8 µM).

What about the Activity (Rattus norvegicus [20]) of the same compound?
The Activity was “Non-toxic”.

What about the inhibition in vivo at 35.85 mg/kg (Mus musculus [21]) of the same compound?
Its inhibition in vivo at 35.85 mg/kg is 63.6%.

What about the inhibition in vivo at 48.34 mg/kg (Rattus norvegicus [22]) of the same compound?
Its inhibition in vivo at 48.34 mg/kg is 61.2%.

And the inhibition in vivo at 48.34 mg/kg (Rattus norvegicus [23])?
The inhibition in vivo at 48.34 mg/kg was 56.5%.

What about the inhibition in vivo at 48.34 mg/kg (Rattus norvegicus [24]) of the same compound?
Its inhibition in vivo at 48.34 mg/kg is 52.7%.

For `O=C(O)Cc1ccccc1Nc1c(Cl)cccc1Cl` [DICLOFENAC], which Activity (Rattus norvegicus [25]) is on record?
The Activity was “Toxic”.

For `CC(C)Cc1ccc(C(C)C(=O)O)cc1` (stereo not given) [IBUPROFEN], which inhibition in vivo at 15 mg/kg (Mus musculus [26]) is on record?
Its inhibition in vivo at 15 mg/kg is 62.4%.

And the inhibition in vivo at 20 mg/kg (Rattus norvegicus [27])?
Its inhibition in vivo at 20 mg/kg is 62.8%.

What about the inhibition in vivo at 20 mg/kg (Rattus norvegicus [28]) of the same compound?
The inhibition in vivo at 20 mg/kg was 58.2%.

And the inhibition in vivo at 20 mg/kg (Rattus norvegicus [29])?
Its inhibition in vivo at 20 mg/kg is 53.9%.
